Assay results from patent publication US12534444B2, “Treatment of cancer/inhibition of metastasis” (Celex Oncology Innovations Limited, priority 2010, dated 2026).
Entries after “also recorded” stand apart in the source; their conditions may differ.

Experiments:
[1] = test system: Mat-LyLu cells; test: Cell viability assay (trypan blue); format: cell-based, rat; details: 24 hours
Experimental: (§1) Cells were seeded at a density of 5×10^4 cells/ml in 35 mm Falcon tissue culture dishes. After treatment with a given drug, the medium was removed and replaced with 800 μl of growth medium and 200 μl 0.4% trypan blue (Sigma, Dorset, UK) and incubated for 10 minutes in the incubator. The trypan blue was removed and the cells were washed once with 3 ml growth medium. For each treatment, cells from 30 random fields of view were counted under 100× magnification. The number of dead cells, stained blue, was counted in each field of view. The data were expressed as percentages of living cells out of the total number of cells in given fields of view. The percentages were averaged and differences between control and treatment were compared from at least three independent experiments.
(§2) With the exception of single cell adhesion tests, which are discussed in the following paragraph, experiments were carried out under either; • (i) normal normoxic conditions ([…], 5% carbon dioxide), or • (ii) following 24 hours hypoxic pre-treatment (2% O2, 5% CO2, 93% N2) continued during the assays.

[2] = test system: MDA-MB-231 cells; test: Invasion assay (Matrigel Transwell); format: cell-based, human
From the text: This assay is an extension of the transverse migration assay described above. To “invade”, the cells need both (i) to move as in the transverse migration assay and (ii) secrete a proteolytic enzyme to digest their surroundings. The ability of cells to invade neighbouring tissues by enzyme secretion was therefore assessed by using a layer of Matrigel™ (BD Biosciences) spread across the porous membrane of a Transwell® insert.
FIG. 7 is a schematic side sectional view of an invasion chamber 701 having a Transwell® insert 702 separating the chamber into upper 703 and lower 704 sections. The insert 702 has a migration filter membrane 705 in its base with 8 μm pores 706 extending therethrough. A layer 707 of Matrigel™ is shown coating the filter membrane 705.
Cells 708 were plated at a density of 2×10^4/ml onto the Matrigel™ layer 707 in 24-well plates (Becton-Dickinson) according to the manufacturers' instructions. 50 μl Matrigel™ was seeded at a 1:7 dilution (10 mg/ml stock) onto the inserts and left overnight. Prior to seeding with the cells the Matrigel™ was rehydrated using medium with no additions. This medium was removed prior to seeding the cells.
Cells were plated in a 1-5% FBS chemotactic gradient overnight (12 hours). The nutrient concentration in the medium 709 in the upper section 703 of the chamber was less than the concentration of nutrient in the medium 710 in the lower section 704 to induced movement of the cells through the Matrigel™ layer 707 and through the pores 706 to the underside of the filter membrane 705. At the end of each assay, non-invaded/non-migrated cells were removed from the upper surface of the insert 702 with two different swabs.
The number of cells invading to the underside of the insert 702 was determined using crystal violet staining. Invaded cells were fixed for 15 minutes with ice-cold methanol. Then 0.5% crystal violet (in 25% methanol) was added for 15 minutes. The inserts were swabbed again and then washed in water and allowed to dry. Cells were then counted using twelve separate fields of view per insert (×200 magnification). If the difference in the average number of cells invading the two control inserts was more than 40%, the experiment was rejected.
as §2

[3] = test system: MDA-MB-231 cells; test: Cell viability assay (trypan blue); format: cell-based, human; details: Normoxia, 48 hours
Experimental: as §1, §2

[4] = test system: MDA-MB-231 cells; test: Transverse migration assay (Transwell); format: cell-based, human
Experimental: This assay was used to represent the ability of cells to migrate as they intra/extravasate. […] The insert 602 has a migration filter membrane 605 in its base with 8 μm pores 606 extending therethrough.
Cells 607 were plated at a density of 2×10^4/ml on the filter membrane 605 and placed under a growth medium 608 containing 1% foetal bovine serum (FBS). A chemotactic gradient was created across the filter membrane 605 by placing growth medium 609 containing 10% FBS in the lower section 604 of the chamber.
Cells were allowed to migrate across the filter membrane 605 over a period of 24 hours, cells migrating and adhering to the underside of the filter membrane 605.
At the end of each assay, non-migrated cells were removed from the upper surface of the insert 602 with two different swabs
The number of cells migrating to the underside of the insert 602 was determined using crystal violet staining. Migrated cells were fixed for 15 minutes with ice-cold methanol. Then 0.5% crystal violet (in 25% methanol) was added for 15 minutes. The inserts were swabbed again and then washed in water and allowed to dry. Cells were then counted using twelve separate fields of view per insert (×200 magnification).
as §2

[5] = test system: MDA-MB-231 cells; test: Lateral motility assay (wound-heal / scratch); format: cell-based, human
Experimental: This assay was used to represent the “free” motility of cancer cells during local spreading. FIG. 5(a) is a plan view from above of a cell culture dish 501 having a semi-confluent layer of cells 502 on its surface, the cells being in an aqueous medium 503.
In order to determine lateral motility, a “wound-heal (“scratch”)” test was carried out, in which a scratch 504 of ˜0.5 mm was made through the layer of cells, as shown in FIG. 5(b) which is a side sectional view of the cell culture dish.
During the period of 24 hours following the formation of the scratch, the cells moved into the gap.
FIGS. 5(c) and 5(d) are schematic plan views of the cell culture dish 501 at time t=zero when the width of the scratch 504 is w0 and time t=24 hours when the width of the scratch 504 is w24, respectively.
as §2

[6] = Hypoxia, 10 μM, listed as RANOLAZINE
[7] = Normoxia, 10 μM, listed as RANOLAZINE
[8] = Hypoxia, 1 μM, listed as RANOLAZINE
[9] = Hypoxia, 100 μM, listed as RANOLAZINE
[10] = Normoxia, 1 μM, listed as RANOLAZINE
[11] = Normoxia, 100 μM, listed as RANOLAZINE

SMILES: COc1ccccc1OCC(O)CN1CCN(CC(=O)Nc2c(C)cccc2C)CC1 (stereo not drawn) [ranolazine]
- CELL VIABILITY ([1]; Hypoxia, 20 μM): no effect
- CELL VIABILITY ([1]; Hypoxia, 50 μM): no effect
- CELL VIABILITY ([1]; Hypoxia, 300 μM): no effect
- CELL VIABILITY ([1]; Normoxia, 20 μM): no effect
- CELL VIABILITY ([1]; Normoxia, 50 μM): no effect
- CELL VIABILITY ([1]; Normoxia, 300 μM): no effect
- INVASIVENESS (no pretreatment) ([2]; Hypoxia, 5 μM): not statistically significant
- INVASIVENESS (pretreatment) ([2]; Hypoxia, 5 μM, 72 hours pretreatment): very significant reduction
- INVASIVENESS (pretreatment) ([2]; Hypoxia, 5 μM, 72 hours pretreatment, listed as RANOLAZINE): decreased
- INVASIVENESS (no pretreatment) ([2]; Hypoxia, 5 μM, listed as RANOLAZINE): no benefit
- INVASIVENESS (no pretreatment) ([2]; Hypoxia, 10 μM): not statistically significant
- INVASIVENESS (no pretreatment) [2, 6]: decreased
- INVASIVENESS (no pretreatment) ([2]; Hypoxia, 20 μM): reduced the migration of the cells
- INVASIVENESS (no pretreatment) ([2]; Hypoxia, 20 μM, listed as RANOLAZINE): no benefit
- INVASIVENESS (no pretreatment) ([2]; Hypoxia, 25 μM): less invasive than untreated cells in a statistically significant way
- INVASIVENESS (pretreatment) ([2]; Hypoxia, 25 μM, 48 hours): decreased
- INVASIVENESS (pretreatment) ([2]; Hypoxia, 25 μM, 72 hours): decreased
- INVASIVENESS (no pretreatment) ([2]; Hypoxia, 25 μM, listed as RANOLAZINE): decreased
- invasiveness (pre-treatment) ([2]; Hypoxia, 25 μM, pre-treated for 24 hours before the 24 hour long assay): significantly less invasive
- invasiveness (pre-treatment) ([2]; Hypoxia, 25 μM, pre-treated for 48 hours before the 24 hour long assay): significantly less invasive
- INVASIVENESS (no pretreatment) ([2]; Hypoxia, 50 μM): reduced the migration of the cells
- INVASIVENESS (no pretreatment) ([2]; Hypoxia, 50 μM, listed as RANOLAZINE): decreased
- INVASIVENESS (no pretreatment) ([2]; Hypoxia, 300 μM): reduced the migration of the cells
- INVASIVENESS (no pretreatment) ([2]; Hypoxia, 300 μM, listed as RANOLAZINE): decreased
- INVASIVENESS (no pretreatment) ([2]; Normoxia, 10 μM): reduced the migration of the cells
- INVASIVENESS (no pretreatment) [2, 7]: decreased
- INVASIVENESS (no pretreatment) ([2]; Normoxia, 20 μM): reduced the migration of the cells
- INVASIVENESS (no pretreatment) ([2]; Normoxia, 20 μM, listed as RANOLAZINE): decreased
- INVASIVENESS (no pretreatment) ([2]; Normoxia, 50 μM): not statistically significant
- INVASIVENESS (no pretreatment) ([2]; Normoxia, 50 μM, listed as RANOLAZINE): no effect
- INVASIVENESS (no pretreatment) ([2]; Normoxia, 300 μM): reduced the migration of the cells
- INVASIVENESS (no pretreatment) ([2]; Normoxia, 300 μM, listed as RANOLAZINE): decreased
- potency on invasiveness compared with positive control TTX ([2]; higher concentrations tested, TTX 10 μmol): more potent than the toxin (TTX)
- CELL VIABILITY ([3]; 1 μM): no effect
- CELL VIABILITY ([3]; 10 μM): no effect
- CELL VIABILITY ([3]; 100 μM): no effect
- TRANSVERSE MIGRATION ([4]; Hypoxia, 1 μM): reduced the transverse migration of the cells in a statistically significant way
- TRANSVERSE MIGRATION [4, 8]: decreased
- TRANSVERSE MIGRATION ([4]; Hypoxia, 10 μM): reduced the transverse migration of the cells in a statistically significant way
- TRANSVERSE MIGRATION [4, 6]: decreased
- TRANSVERSE MIGRATION ([4]; Hypoxia, 100 μM): the reduction was not statistically significant
- TRANSVERSE MIGRATION [4, 9]: decreased
- TRANSVERSE MIGRATION ([4]; Normoxia, 1 μM): reduced the transverse migration of the cells only slightly
- TRANSVERSE MIGRATION [4, 10]: increased
- TRANSVERSE MIGRATION ([4]; Normoxia, 10 μM): reduced the transverse migration of the cells only slightly
- TRANSVERSE MIGRATION [4, 7]: decreased
- TRANSVERSE MIGRATION ([4]; Normoxia, 100 μM): reduced the transverse migration of the cells only slightly
- TRANSVERSE MIGRATION [4, 11]: decreased
- LATERAL MOTILITY ([5]; Hypoxia, 1 μM): statistically significant reduction; also recorded: reduced the lateral motility
- LATERAL MOTILITY [5, 8]: decreased
- LATERAL MOTILITY ([5]; Hypoxia, 10 μM): statistically significant reduction; also recorded: reduced the lateral motility
- LATERAL MOTILITY [5, 6]: decreased
- LATERAL MOTILITY ([5]; Hypoxia, 100 μM): statistically significant reduction; also recorded: reduced the lateral motility
- LATERAL MOTILITY [5, 9]: decreased
- LATERAL MOTILITY ([5]; Normoxia, 1 μM): reduced
- LATERAL MOTILITY [5, 10]: decreased
- LATERAL MOTILITY ([5]; Normoxia, 10 μM): reduced
- LATERAL MOTILITY [5, 7]: decreased
- LATERAL MOTILITY ([5]; Normoxia, 100 μM): reduction at a concentration of 100 μM ranolazine was statistically significant
- LATERAL MOTILITY [5, 11]: decreased
